Measurements from paper PMC7083565, “In vitro metabolism, reaction phenotyping, enzyme kinetics, CYP inhibition and induction potential of ataluren” (Pharmacology Research & Perspectives, 2020).
Like-named read-outs stand apart in the source and are kept apart here.

What was measured:
[1] = Plasma protein binding (ultrafiltration), dog; type: in vitro ADME; conditions: male, beagle, 50 to 50 000 ng/mL, mean ± SD, n = 3, read-out: percentage protein binding (converted)
Protocol: [^14C]‐Ataluren, at 50, 500, 5000, and 50 000 ng/mL or 0.175, 1.75, 17.5, and 175 µM, in male mouse, rat, dog, monkey, and human plasma, was incubated (n = 3) at 37°C for approximately 15 minutes, transferred into Centrifree® Micropartition Units (30 000 Da molecular weight cutoff, 1 mL capacity; Amicon Inc), and centrifuged at 37°C and 2000 g for approximately 10 minutes so that the amount of the sample filtered was approximately ≤ 20% of the total volume. After centrifugation, the entire ultrafiltrate was weighed and analyzed for radioactivity using liquid scintillation counting. The percent bound = (1‐Cu/Cm)×100, where Cu is the concentration of radioactivity in the ultrafiltrate and Cm is the concentration of radioactivity in the plasma before centrifugation.

human hepatocytes = assay: MTT cytotoxicity assay in human hepatocytes; type: cell-based; conditions: at the concentrations tested (4, 40, 400 µmol/L), data not shown
UGT1A9 = target: T1, UGT1A9 (Homo sapiens, UniProt O60656); assay: Ataluren glucuronidation kinetics, recombinant human UGT1A9; type: in vitro ADME; conditions: for K m / K m, u / V max: mean ± SE; for K m / K m, u / V max / fraction unbound at 15 min: n = 3; for microsomal CLint / fraction unbound at 15 min: human; for microsomal CLint: read-out: CLint,u,UGT; for fraction unbound at 15 min: recombinant human UGT1A9 incubation mixture, mean ± SD, read-out: fu,inc
T1 construct: purchased BD Biosciences; host or cells: baculovirus-infected insect cells
T1 sequence (O60656 26-530): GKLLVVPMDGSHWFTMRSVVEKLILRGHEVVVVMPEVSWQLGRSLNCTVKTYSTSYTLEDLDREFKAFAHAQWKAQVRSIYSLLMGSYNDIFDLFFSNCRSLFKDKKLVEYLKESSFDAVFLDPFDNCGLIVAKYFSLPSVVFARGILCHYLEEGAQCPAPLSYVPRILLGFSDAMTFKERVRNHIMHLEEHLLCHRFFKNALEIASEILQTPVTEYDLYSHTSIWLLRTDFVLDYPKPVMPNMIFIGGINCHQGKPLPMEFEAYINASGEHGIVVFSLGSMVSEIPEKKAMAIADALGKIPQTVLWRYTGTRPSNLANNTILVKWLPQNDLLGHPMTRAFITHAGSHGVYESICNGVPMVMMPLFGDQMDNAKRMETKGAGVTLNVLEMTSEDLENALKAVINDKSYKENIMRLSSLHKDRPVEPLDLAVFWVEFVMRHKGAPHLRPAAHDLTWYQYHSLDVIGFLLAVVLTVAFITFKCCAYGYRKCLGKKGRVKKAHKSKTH
Protocol: Ataluren at 0.5, 2.5, 12.5, 25, 50, 100, 200, and 400 µmol/L, was incubated (n = 3) at 37°C with recombinant human UGT1A9 and with pooled microsomes from human liver, kidney, and intestine (0.025 mg protein/mL, preactivated with alamethicin at 20 µg/mL) in Tris‐HCl buffer (0.1 mol/L, pH 7.5), in the presence of 1 mmol/L EDTA, 5 mmol/L MgCl2, with or without 0.5%, 1%, or 2% BSA. The incubation (100 µL final volume with 0.5% DMSO) was started by adding an equal volume of UDPGA (5 mmol/L) in Tris‐HCl buffer (0.1 mol/L, pH 7.5). After 30 minutes incubation, the incubation mixtures were combined with 0.3 mL of an internal standard solution in acetonitrile with 1% formic acid, followed by membrane plate filtration. The filtrates were used for LC‐MS/MS analysis to quantify the formation of ataluren‐O‐1β‐acyl glucuronide. Detailed LC‐MS/MS conditions are summarized in LC‐MS/MS Analysis section. Ataluren acyl glucuronide formation rate after 30 minutes incubation was calculated using the amount of metabolite formed (pmol) divided by the protein amount in the incubation sample (0.0025 mg) and the incubation time (30 minutes). Ataluren glucuronidation kinetic parameters were determined with and without adjusting BSA binding by nonlinear regression (GraphPad Prism, 5version 5.04, GraphPad Software, Inc.) using Michaelis‐Menten equation which was the best fit compared with other models. The intrinsic clearance was calculated as CLint = Vmax/Km. In order to compare unbound intrinsic clearance by glucuronidation (CLint,u,UGT) in different tissues, CLint,u,UGT was expressed per gram of tissue by correcting the values for the microsomal protein yield, resulting in scaled CLint,u,UGT. Microsomal protein yields of 40.0, 12.8, and 20.6 mg protein/g tissue were used for hepatic, renal, and intestinal data, respectively. ^26
The high‐throughput membrane ultrafiltration method ^27 was used to determine the fraction unbound in the incubation (n = 3). Incubation mixtures and procedures were essentially the same as the above except that UDPGA (5 mmol/L) was replaced with Tris‐HCl buffer (0.1 mol/L, pH 7.5). After 15 minutes incubation, aliquot was transferred to a Millipore Multiscreen Ultracel‐10 filter plate (10 kDa molecular mass cut off; EMD Millipore). The plate was centrifuged at 37°C and 3710 g. After 30 minutes centrifugation, aliquots of ultrafiltrates and incubation mixtures prior to ultrafiltration were quenched with an internal standard solution in acetonitrile, followed by membrane plate filtration. The filtrates were used for LC‐MS/MS analysis to quantify the concentration of ataluren. The same LC‐MS/MS conditions described above are summarized in LC‐MS/MS Analysis section. The free fraction = Cu/Cm, where Cu is the concentration of ataluren in the ultrafiltrate and Cm is the concentration of ataluren in the incubation system before centrifugation. Unbound Km (Km, u) was recalculated by applying Michaelis‐Menten equation using free ataluren concentrations after correcting BSA binding at each ataluren and BSA concentration level.
Quantification of ataluren‐O‐1β‐acyl glucuronide formation was conducted on an Accela pump and a PAL autosampler equipped with a TSQ Quantum Ultra mass spectrometer (Thermo Fisher Scientific). A Waters Acquity BEH column (C18, 1.7 µm, 50 × 2.1 mm; Waters Cooperation) was used and maintained at 50°C. The mobile phases were 0.1% formic acid in water (A) and acetonitrile (B). The flow rate was 0.6 mL/min and gradient program was as follows: linear gradient from 0% B to 95% B in 0.5 minutes and hold isocratic at 95% B for 1 minute; linear gradient from 95% B to 0% B in 0.1 minutes and hold isocratic at 0% B for 0.4 minutes. TSQ Quantum Ultra mass spectrometer was equipped with a heated electrospray ionization source operated in negative‐ion mode with a vaporizer temperature of 350°C, capillary temperature of 380°C, and spray voltage of 3 kV. […]

In the case of `O=C(O)c1cccc(-c2noc(-c3ccccc3F)n2)c1` [ataluren, Ataluren], the fraction unbound at 15 min [1] is reported as 0.025, the “cytotoxicity (MTT assay)” value (human hepatocytes) is reported as “not cytotoxic” and the K m (UGT1A9; UGT1A9, 0% BSA) is reported as 4.76 ± 0.934 µM. The “K m, u” value (UGT1A9; UGT1A9, 0% BSA) was 4.76 ± 0.934 µM, the V max (UGT1A9; UGT1A9, 0% BSA) was 1058 ± 31.8 pmol/min/mg and the K m (UGT1A9; UGT1A9, 0.5% BSA) was 26.4 ± 2.80 µM. The “K m, u” value (UGT1A9; UGT1A9, 0.5% BSA) was 2.71 ± 0.309 µM, the V max (UGT1A9; UGT1A9, 0.5% BSA) was 752 ± 20.3 pmol/min/mg and the K m (UGT1A9; UGT1A9, 1% BSA) was 45.6 ± 3.83 µM. For the same compound, the “K m, u” value (UGT1A9; UGT1A9, 1% BSA) was 2.52 ± 0.243 µM, the V max (UGT1A9; UGT1A9, 1% BSA) was 842 ± 23.0 pmol/min/mg and the K m (UGT1A9; UGT1A9, 2% BSA) was 83.4 ± 15.3 µM. The “K m, u” value (UGT1A9; UGT1A9, 2% BSA) was 2.46 ± 0.498 µM, the V max (UGT1A9; UGT1A9, 2% BSA) was 847 ± 56.2 pmol/min/mg and the microsomal CLint (UGT1A9; recombinant human UGT1A9, pH 7.5, UGT1A9, 0% BSA) was 222 µL/min/mg. For the same compound, the microsomal CLint (UGT1A9; recombinant human UGT1A9, pH 7.5, UGT1A9, 0.5% BSA) was 277 µL/min/mg, the microsomal CLint (UGT1A9; recombinant human UGT1A9, pH 7.5, UGT1A9, 1% BSA) was 334 µL/min/mg and the microsomal CLint (UGT1A9; recombinant human UGT1A9, pH 7.5, UGT1A9, 2% BSA) was 344 µL/min/mg. It also gave a fraction unbound at 15 min (UGT1A9; pH 7.5, UGT1A9, 0% BSA) of 1 ± 0.5, a fraction unbound at 15 min (UGT1A9; pH 7.5, UGT1A9, 0.5% BSA) of 0.116 ± 0.019 and a fraction unbound at 15 min (UGT1A9; pH 7.5, UGT1A9, 1% BSA) of 0.064 ± 0.007. The fraction unbound at 15 min (UGT1A9; pH 7.5, UGT1A9, 2% BSA) was 0.035 ± 0.003 and the “maximal effect of BSA on CLint,u (increase)” value (UGT1A9; recombinant UGT1A9, with vs without BSA) was “approximately 1.6 fold”.
